Experimental data taken from publication PMC2751816, “Functional, Non-Clonal IgM^a-Restricted B Cell Receptor Interactions with the HIV-1 Envelope gp41 Membrane Proximal External Region” (PLoS ONE, 2009).

Test system: splenic B cells, C57BL/6 congenic (IgH^a)
Test: Flow cytometry: tetramer staining of splenic B cells from C57BL/6 congenic (IgH^a) mice
Type: cell-based, mouse (B6Igh^a)
Conditions: C57BL/6 mice homozygous for Igh^a; Fig. 5
Description: N-biotinylated, linker/spacer-containing peptides used to make tetramers are detailed in Table S4 and Fig. 7A. Peptides were synthesized and purified using reverse-phase HPLC (Primm Biotechnology). To produce tetramerized forms of each peptides, 200 µM peptide and 6 µM APC-labeled streptavadin (SA) were combined at equal volumes, and mixtures were incubated at 4°C for 4 h. Unbound peptide was removed from peptide-APC complexes by centrifugal filtration using an Amicon Centriprep YM30 column (Millipore Corporation). Purified tetramer preparations were determined using the Micro BSA protein assay kit (Pierce Biotechnology).
Female C57BL/6, BALB/c, B6Igh^a, and CB17 (BALBc Igh^b) inbred mouse strains (8–12 wks of age) were purchased from Charles River Laboratories. All mice were housed in the Duke University Animal Facility in a pathogen-free environment with 12 h light/dark cycles at 20–25°C under AALAC guidelines and in accordance with all Institutional Animal Care and Use Committee and Duke University Institutional Biosafety Committee-approved animal protocols. […]
FACS staining of single cell suspensions (≥2×10^6) was conducted using pre-mixed combinations of fluorochrome-labeled Abs and APC-conjugated B cell tetramers at empirically-determined optimal concentrations. […]

Sequence: QQEKNEQELLELDKWASLWN [gp41 MPER tetramer, (residues 659–678 of the HIV-1 envelope)]
- gp41 MPER binding in congenic mice (in words): exhibited gp41 MPER binding identical to BALB/c animals
